Columns and labels:
Assay type in all cases: in vivo
[1] = tested on: barnyardgrass (Echinochloa crus-galli); experiment: Test B1 flooded paddy test, barnyardgrass; settings: 250 g ai/ha, Flood, applied to paddy water, 2-leaf stage, visually evaluated after 10 to 14 days
Excerpt: (§1) A dash (-) response means no test result.

[2] = tested on: Foxtail, Giant (giant foxtail, Setaria faberi); experiment: Test A1 preemergence, Foxtail, Giant
In short: (§2)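 Both timings started from seed in a loam-sand blend. Preemergence pots got a directed soil application immediately; postemergence pots were sprayed when seedlings had one or two leaves and stood 2–10 cm. Each compound was prepared in a non-phytotoxic solvent plus surfactant.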

[3] = tested on: wheat (Triticum aestivum); experiment: Test A1 postemergence, wheat; settings: Postemergence
In short: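 Herbicidal response was scored on plants treated either preemergence, by directed spray onto soil of a loam–sand blend after sowing, or postemergence on potted plants at the one- to two-leaf stage, 2–10 cm high. Test chemicals were carried in a non-phytotoxic solvent mix with surfactant.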

[4] = tested on: ducksalad (Heteranthera limosa); experiment: Test B1 flooded paddy test, ducksalad; settings: 250 g ai/ha, Flood, applied to paddy water, 2-leaf stage, visually evaluated after 10 to 14 days
Excerpt: as §1

rice (Oryza sativa) = experiment: Test B1 flooded paddy test, rice; settings: 250 g ai/ha, Flood, applied to paddy water, 2-leaf stage, visually evaluated after 10 to 14 days
Excerpt: as §1

kochia (Bassia scoparia) = experiment: Test A1 preemergence, kochia
In short: as §2

[5] = tested on: Oat, Wild (wild oat, Avena fatua); experiment: Test A1 preemergence, Oat, Wild
In short: as §2

[6] = 31 g ai/ha, 0 to 100 scale (0 no effect, 100 complete control)
[7] = 125 g ai/ha, 0 to 100 scale, 0 no effect, 100 complete control
[8] = 31 g ai/ha, 0 to 100 scale (0 no effect, 100 complete control), 10 days

Cc1c(NS(=O)(=O)C(F)(F)F)cc(C(=O)N(C)C)c(C)c1C [Compound 288]
Plant response rating, Barnyardgrass (0 to 100 scale, 0 is no effect, 100 is complete control) [1]: 0
Plant response rating, Foxtail, Giant [2, 6]: 20
Plant response rating, Foxtail, Giant [2, 7]: 90
Plant response rating, Wheat [3, 8]: 0
Plant response rating, Wheat ([3]; 125 g ai/ha, 0 to 100 scale): 10
Plant response rating, Ducksalad (0 to 100 scale, 0 is no effect, 100 is complete control) [4]: 60
Plant response rating, Rice (0 to 100 scale, 0 is no effect, 100 is complete control) (rice (Oryza sativa)): 0
Plant response rating, Kochia (kochia (Bassia scoparia); [6]): 0
Plant response rating, Kochia (kochia (Bassia scoparia); [7]): 40
Plant response rating, Oat, Wild [5, 6]: 0
Plant response rating, Oat, Wild [5, 7]: 0

Cc1c(NS(=O)(=O)C(F)(F)F)cc(C(=O)N2CCOCC2)c(C)c1C [Compound 289, 1,1,1-Trifluoro-N-[2,3,4-trimethyl-5-(4-morpholinylcarbonyl)phenyl]methanesulfonamide]
Plant response rating, Barnyardgrass (0 to 100 scale, 0 is no effect, 100 is complete control) [1]: 85
Plant response rating, Foxtail, Giant [2, 6]: 30
Plant response rating, Foxtail, Giant [2, 7]: 100
Plant response rating, Wheat [3, 8]: 20
Plant response rating, Wheat ([3]; 125 g ai/ha, 0 to 100 scale): 50
Plant response rating, Ducksalad (0 to 100 scale, 0 is no effect, 100 is complete control) [4]: 95
Plant response rating, Rice (0 to 100 scale, 0 is no effect, 100 is complete control) (rice (Oryza sativa)): 10
Plant response rating, Kochia (kochia (Bassia scoparia); [6]): 20
Plant response rating, Kochia (kochia (Bassia scoparia); [7]): 80
Plant response rating, Oat, Wild [5, 6]: 20
Plant response rating, Oat, Wild [5, 7]: 50

Cc1cc(C)c(N(C(=O)OC(C)C)S(=O)(=O)C(F)(F)F)cc1C1=NOC2CCCC12 (stereo not drawn) [Compound 295]
Plant response rating, Barnyardgrass (0 to 100 scale, 0 is no effect, 100 is complete control) [1]: 95
Plant response rating, Foxtail, Giant [2, 6]: 0
Plant response rating, Foxtail, Giant [2, 7]: 40
Plant response rating, Wheat [3, 8]: 20
Plant response rating, Wheat ([3]; 125 g ai/ha, 0 to 100 scale): 70
Plant response rating, Ducksalad (0 to 100 scale, 0 is no effect, 100 is complete control) [4]: 0
Plant response rating, Rice (0 to 100 scale, 0 is no effect, 100 is complete control) (rice (Oryza sativa)): 0
Plant response rating, Kochia (kochia (Bassia scoparia); [6]): 0
Plant response rating, Kochia (kochia (Bassia scoparia); [7]): 30
Plant response rating, Oat, Wild [5, 6]: 0
Plant response rating, Oat, Wild [5, 7]: 0

Cc1cc(C)c(N(S(=O)(=O)C(F)(F)F)S(=O)(=O)C(F)(F)F)cc1C1=NOC2COCC12 (stereo not drawn) [Compound 296]
Plant response rating, Barnyardgrass (0 to 100 scale, 0 is no effect, 100 is complete control) [1]: 30
Plant response rating, Foxtail, Giant [2, 6]: 30
Plant response rating, Foxtail, Giant [2, 7]: 100
Plant response rating, Wheat [3, 8]: 0
Plant response rating, Wheat ([3]; 125 g ai/ha, 0 to 100 scale): 30
Plant response rating, Ducksalad (0 to 100 scale, 0 is no effect, 100 is complete control) [4]: 20
Plant response rating, Rice (0 to 100 scale, 0 is no effect, 100 is complete control) (rice (Oryza sativa)): 0
Plant response rating, Kochia (kochia (Bassia scoparia); [6]): 60
Plant response rating, Kochia (kochia (Bassia scoparia); [7]): 90
Plant response rating, Oat, Wild [5, 6]: 0
Plant response rating, Oat, Wild [5, 7]: 10

Cc1cc(C)c(C2=NOC3COCC23)cc1NS(=O)(=O)C(F)(F)F (stereo not drawn) [Compound 297]
Plant response rating, Barnyardgrass (0 to 100 scale, 0 is no effect, 100 is complete control) [1]: 0
Plant response rating, Foxtail, Giant [2, 6]: 80
Plant response rating, Foxtail, Giant [2, 7]: 100
Plant response rating, Wheat [3, 8]: 10
Plant response rating, Wheat ([3]; 125 g ai/ha, 0 to 100 scale): 80
Plant response rating, Ducksalad (0 to 100 scale, 0 is no effect, 100 is complete control) [4]: 50
Plant response rating, Rice (0 to 100 scale, 0 is no effect, 100 is complete control) (rice (Oryza sativa)): 0
Plant response rating, Kochia (kochia (Bassia scoparia); [6]): 80
Plant response rating, Kochia (kochia (Bassia scoparia); [7]): 90
Plant response rating, Oat, Wild [5, 6]: 0
Plant response rating, Oat, Wild [5, 7]: 20

Cc1cc(C)c(N(C(=O)OCC(C)C)S(=O)(=O)C(F)(F)F)cc1C1=NOC2CCCC12 (stereo not drawn) [Compound 299]
Plant response rating, Barnyardgrass (0 to 100 scale, 0 is no effect, 100 is complete control) [1]: 95
Plant response rating, Foxtail, Giant [2, 6]: 0
Plant response rating, Foxtail, Giant [2, 7]: 40
Plant response rating, Wheat [3, 8]: 30
Plant response rating, Wheat ([3]; 125 g ai/ha, 0 to 100 scale): 70
Plant response rating, Ducksalad (0 to 100 scale, 0 is no effect, 100 is complete control) [4]: 55
Plant response rating, Rice (0 to 100 scale, 0 is no effect, 100 is complete control) (rice (Oryza sativa)): 0
Plant response rating, Kochia (kochia (Bassia scoparia); [6]): 0
Plant response rating, Kochia (kochia (Bassia scoparia); [7]): 50
Plant response rating, Oat, Wild [5, 6]: 0
Plant response rating, Oat, Wild [5, 7]: 20
